# Data taken from PubChem BioAssay AID1963853 (Molecular Pharmacology Branch, DTP, NCI, 2024).
# Test system: 266295-075-R-J1-PDC spheroid viability
# Assay: Anticancer human tumor 266295-075-R-J1-PDC patient-derived head and neck squamous carcinoma cell line growth inhibition [POLQ]
# Settings: spheroids with HUVEC and MSC; for IC50: curve of first compound; for viability, T/C: stronger effect = lower value
# In short: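 Three-cell-type spheroids modelling solid tumor plus stroma served as the readout system; POL inhibitors were tested individually and in combination, concentration ranges set by clinical Cmax where known.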
# [1] = second compound 0.0316 µM, first compound 0.0316 µM
# [2] = second compound 0.0316 µM, first compound 0.1 µM
# [3] = second compound 0.0316 µM, first compound 0.316 µM
# [4] = second compound 0.0316 µM, first compound 1 µM
# [5] = second compound 0.0316 µM, first compound 3.16 µM
# [6] = second compound 0.0316 µM, first compound 10 µM
# [7] = second compound 0.1 µM, first compound 0.0316 µM
# [8] = second compound 0.1 µM, first compound 0.1 µM
# [9] = second compound 0.1 µM, first compound 0.316 µM
# [10] = second compound 0.1 µM, first compound 1 µM
# [11] = second compound 0.1 µM, first compound 3.16 µM
# [12] = second compound 0.1 µM, first compound 10 µM
# [13] = second compound 0.316 µM, first compound 0.0316 µM
# [14] = second compound 0.316 µM, first compound 0.1 µM
# [15] = second compound 0.316 µM, first compound 0.316 µM
# [16] = second compound 0.316 µM, first compound 1 µM
# [17] = second compound 0.316 µM, first compound 3.16 µM
# [18] = second compound 0.316 µM, first compound 10 µM
# [19] = second compound 1 µM, first compound 0.0316 µM
# [20] = second compound 1 µM, first compound 0.1 µM
# [21] = second compound 1 µM, first compound 0.316 µM
# [22] = second compound 1 µM, first compound 1 µM
# [23] = second compound 1 µM, first compound 3.16 µM
# [24] = second compound 1 µM, first compound 10 µM
# [25] = second compound 3.16 µM, first compound 0.0316 µM
# [26] = second compound 3.16 µM, first compound 0.1 µM
# [27] = second compound 3.16 µM, first compound 0.316 µM
# [28] = second compound 3.16 µM, first compound 1 µM
# [29] = second compound 3.16 µM, first compound 3.16 µM
# [30] = second compound 3.16 µM, first compound 10 µM
# [31] = second compound 10 µM, first compound 0.0316 µM
# [32] = second compound 10 µM, first compound 0.1 µM
# [33] = second compound 10 µM, first compound 0.316 µM
# [34] = second compound 10 µM, first compound 1 µM
# [35] = second compound 10 µM, first compound 3.16 µM
# [36] = second compound 10 µM, first compound 10 µM
# 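Also: spheroids exposed to compounds for seven days before readout.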
smiles,measurement,setting,value
C#Cc1c(F)ccc2cc(O)cc(-c3ncc4c(N5CC6CCC(C5)N6)nc(OCC56CCCN5CC(F)C6)nc4c3F)c12 (centres undefined) + Nc1ccc(C#CCN(C(=O)Cc2ncc(C(F)(F)F)cc2C(F)(F)F)c2ccc(F)cc2)nn1,IC50,second compound 0.0316 µM,> 10 µM
same,IC50,second compound 0.1 µM,7.4 µM
same,IC50,second compound 0.316 µM,8.3 µM
same,IC50,second compound 1 µM,> 10 µM
same,IC50,second compound 3.16 µM,> 10 µM
same,IC50,second compound 10 µM,> 10 µM
same,"viability, T/C",[1],86.8%
same,"viability, T/C",[2],89%
same,"viability, T/C",[3],82.9%
same,"viability, T/C",[4],71.6%
same,"viability, T/C",[5],60.8%
same,"viability, T/C",[6],50%
same,"viability, T/C",[7],90.2%
same,"viability, T/C",[8],103%
same,"viability, T/C",[9],75.2%
same,"viability, T/C",[10],81%
same,"viability, T/C",[11],67%
same,"viability, T/C",[12],43.7%
same,"viability, T/C",[13],89.2%
same,"viability, T/C",[14],71.7%
same,"viability, T/C",[15],63%
same,"viability, T/C",[16],84.1%
same,"viability, T/C",[17],60.7%
same,"viability, T/C",[18],47.3%
same,"viability, T/C",[19],114%
same,"viability, T/C",[20],84%
same,"viability, T/C",[21],70.7%
same,"viability, T/C",[22],68.3%
same,"viability, T/C",[23],56.9%
same,"viability, T/C",[24],54.7%
same,"viability, T/C",[25],80.8%
same,"viability, T/C",[26],90.6%
same,"viability, T/C",[27],74.7%
same,"viability, T/C",[28],68.7%
same,"viability, T/C",[29],71.6%
same,"viability, T/C",[30],64.1%
same,"viability, T/C",[31],91.8%
same,"viability, T/C",[32],73.9%
same,"viability, T/C",[33],82.5%
same,"viability, T/C",[34],63.8%
same,"viability, T/C",[35],64.1%
same,"viability, T/C",[36],52.4%
O=C(Nc1ccc(O)c(NS(=O)(=O)c2ccc(F)cc2)c1)c1ccc(-c2ccccc2)cc1 + Nc1ccc(C#CCN(C(=O)Cc2ncc(C(F)(F)F)cc2C(F)(F)F)c2ccc(F)cc2)nn1,IC50,second compound 0.0316 µM,> 10 µM
same,IC50,second compound 0.1 µM,> 10 µM
same,IC50,second compound 0.316 µM,> 10 µM
same,IC50,second compound 1 µM,> 10 µM
same,IC50,second compound 3.16 µM,> 10 µM
same,IC50,second compound 10 µM,> 10 µM
same,"viability, T/C",[1],118%
same,"viability, T/C",[2],105%
same,"viability, T/C",[3],96.8%
same,"viability, T/C",[4],114%
same,"viability, T/C",[5],135%
same,"viability, T/C",[6],87.8%
same,"viability, T/C",[7],98.3%
same,"viability, T/C",[8],123%
same,"viability, T/C",[9],86.3%
same,"viability, T/C",[10],118%
same,"viability, T/C",[11],131%
same,"viability, T/C",[12],94.7%
same,"viability, T/C",[13],103%
same,"viability, T/C",[14],113%
same,"viability, T/C",[15],123%
same,"viability, T/C",[16],114%
same,"viability, T/C",[17],130%
same,"viability, T/C",[18],106%
same,"viability, T/C",[19],101%
same,"viability, T/C",[20],109%
same,"viability, T/C",[21],83.5%
same,"viability, T/C",[22],109%
same,"viability, T/C",[23],131%
same,"viability, T/C",[24],91.9%
same,"viability, T/C",[25],94.4%
same,"viability, T/C",[26],98%
same,"viability, T/C",[27],91%
same,"viability, T/C",[28],99.7%
same,"viability, T/C",[29],111%
same,"viability, T/C",[30],106%
same,"viability, T/C",[31],87.9%
same,"viability, T/C",[32],82.4%
same,"viability, T/C",[33],102%
same,"viability, T/C",[34],105%
same,"viability, T/C",[35],94.3%
same,"viability, T/C",[36],87.9%
